Patent publication US20240425512A1, “NITROGEN-CONTAINING HETEROCYCLIC COMPOUND, PHARMACEUTICAL COMPOSITION THEREOF AND APPLICATION THEREOF” (280 Bio, Inc., priority 2023, published 2024)
Where two headings read alike, the source gives them in different places.

How the values were obtained:
[1] = system: GP2D cells; test: Proliferation inhibition on RAS cell lines measured by CTG, GP2D; format: cell-based; conditions: CellTiter Glo
Description: (§1) The proliferation inhibitory effect of the compounds on various mutations was evaluated by determining the proliferation inhibitory activity of the compounds on these cell lines.
(§2) The assay was conducted on either 384-well plates or 96-well plates. The procedures are as follows:
(§3) The cell suspensions were added to 384- or 96-well plates (384-well plate: 50 μL; 96-well plate: 100 μL) except for peripheral wells. The plates were placed in a carbon dioxide incubator overnight. NCI-H358, AGS, NCI-H460, MKN-1, LS513, LoVo, and NCI-H441 were placed in a 5%, 370 carbon dioxide incubator overnight, and SW620 was placed in a 0%, 370 carbon dioxide incubator overnight. The HPD300 micro-dosing instrument was used to add the corresponding concentration of compound to each well (9-10 concentration gradients of compound were obtained by 3-fold dilution). Cell plates were incubated in a carbon dioxide incubator for 5-6 days. NCI-H358, AGS, NCI-H460 and MKN-1 were incubated at 5%, 37° incubator and SW620 was incubated at 0%, 370 incubator. On the day of plate measurement, the 384- or 96-well plates were first equilibrated at room temperature for 10-30 min, then CellTiter Glo reagent (384-well plate: 25 μL; 96-well plate: 100 μL) was added to the 384- or 96-well plate, shaken for 10 min away from light, and incubated for 10 min. The plates were placed into Victor NIVO or ENVIDION reader plates, and XLFit was utilized to plot the pharmacodynamic inhibition curve and calculate the IC50 value. “IC50>10 μM” is denoted by “*”, “10 μM≥IC50≥1 μM” is denoted by “**”, and “1 μM≥IC50>100 nM” is denoted by “***”, “IC50<100 nM” is denoted by “****”

[2] = system: LS513 colon cancer cell with KRAS G12D mutation; test: Proliferation inhibition on RAS cell lines measured by CTG, LS513; format: cell-based; conditions: LS513 cells, incubated for 6 days
Excerpt: NCI-H358 is a human non-small cell lung cancer cell line with KRAS G12C mutation; AGS is a gastric cancer cell line with KRAS G12D mutation; SW620 is a colon cancer cell with KRAS G12V mutation; NCI-H460 is a non-small cell lung cancer cell with KRAS Q61H mutation; MKN1 is a wild-type gastric cancer cell with KRAS-amplified; LS513 is a colon cancer cell with KRAS G12D mutation; LoVo is a colon cancer cell with KRAS G13D mutation; NCI-H441 is a lung cancer cell with KRAS G12V mutation, and Capan-2 is a pancreatic cancer cell with KRAS G12V mutation.
as §1, §2, §3

[3] = 144 h, Table 3, incubated for 6 days, read-out: IC50 (GP2D^l)
[4] = Homo sapiens, LS-513, 144 h, Table 3, CellTiter Glo, read-out: IC50 (LS513^k)
[5] = Table 3, incubated for 6 days, read-out: IC50 (GP2D^l)
[6] = Homo sapiens, LS-513, 144 h, Table 2, CellTiter Glo, read-out: IC50 (LS513^f)
[7] = 144 h, Table 2, incubated for 6 days, read-out: IC50 (GP2D^j)
[8] = Homo sapiens, LS-513, 144 h, Table 1, CellTiter Glo, read-out: IC50 (LS513^f)

Row | IC50 [2, 6] | SMILES | IC50 [1, 3] | further results
1 | 100 to 1000 nM | C#Cc1c(F)ccc2cc(O)cc(-c3ncc4c(N5CCCCCN5)nc(OCC5(CN6CCN(C)CC6)CC5)nc4c3F)c12 [Compound 52] | – | –
2 | < 100 nM | C#Cc1c(F)ccc2cc(O)cc(-c3ncc4c(N5CCCCCN5)nc(OCC56CCCN5C(COc5cc(C(F)(F)F)ncn5)CC6)nc4c3F)c12 (centres unmarked) [Compound 60] | – | IC50 [1, 7]: < 100 nM
3 | < 100 nM | C#Cc1c(F)ccc2cc(O)cc(-c3ncc4c(N5CCCCCN5)nc(OCC56CCCN5C(COc5cc(C(F)(F)F)cnn5)CC6)nc4c3F)c12 (centres unmarked) [Compound 58] | – | IC50 [1, 7]: < 100 nM
4 | 1000 to 10000 nM | C#Cc1c(F)ccc2cc(O)cc(-c3ncc4c(N5CCNCCN5)nc(OC[C@@]56CCCN5C[C@H](F)C6)nc4c3F)c12 [Compound 40] | – | –
5 | < 100 nM | CCc1c(F)ccc2cc(O)cc(-c3ncc4c(N5CCCCCN5)nc(OCC5(CN6CCOCC6)CC5)nc4c3F)c12 [Compound 46] | – | –
6 | 100 to 1000 nM | C#Cc1c(F)ccc2cc(O)cc(-c3ncc4c(N5CCCCCN5)nc(OCC5(CN6CCCC6)CC5)nc4c3F)c12 [Compound 53] | – | –
7 | < 100 nM | C=Cc1cc2c(N3CCCCCN3)nc(OC[C@@]34CCCN3C[C@H](F)C4)nc2c(F)c1-c1ccc(F)c2sc(N)c(C#N)c12 [Compound 43] | – | –
8 | < 100 nM | N#Cc1c(N)sc2c(F)ccc(-c3c(C(F)(F)F)cc4c(N5CCCCCN5)nc(OC[C@@]56CCCN5C[C@H](F)C6)nc4c3F)c12 [Compound 48] | – | –
9 | 100 to 1000 nM | N#Cc1c(N)sc2c(F)ccc(-c3c(Cl)cc4c(N5CCCCCN5)nc(OC[C@@]56CCCN5C[C@H](F)C6)nc4c3F)c12 [Compound 42] | – | –
10 | < 100 nM | C#Cc1c(F)ccc2cc(O)cc(-c3ncc4c(N5CCCCCN5)nc(OCC5(CN6CCCCC6)CC5)nc4c3F)c12 [Compound 47] | – | –
11 | < 100 nM | CCc1cc2c(N3CCCCCN3)nc(OC[C@@]34CCCN3C[C@H](F)C4)nc2c(F)c1-c1ccc(F)c2sc(N)c(C#N)c12 [Compound 44] | – | –
12 | < 100 nM | CCc1c(F)ccc2cc(O)cc(N3CCc4c(nc(OC[C@@]56CCCN5C[C@H](F)C6)nc4N4CCCCCN4)C3)c12 [Compound 51] | – | –
13 | < 100 nM | C#Cc1c(F)ccc2cc(O)cc(-c3ncc4c(N5CCCC(F)(F)CN5)nc(OC[C@@]56CCCN5C[C@H](F)C6)nc4c3F)c12 [Compound 56] | – | –

Further lines, the compound ahead of its results:

Row | SMILES | IC50 [2, 6] | IC50 [1, 3] | further results
14 | C#Cc1c(F)ccc2cc(OC(=O)N(C)C[C@@H]3CCCN3)cc(-c3ncc4c(N5CCCCCN5)nc(OC[C@@]56CCCN5C[C@H](F)C6)nc4c3F)c12 [Compound 151] | – | < 100 nM | IC50 [2, 4]: < 100 nM
15 | C#Cc1c(F)ccc2cc(O)cc(-c3ncc4c(N5CCCCCN5)nc(OC[C@@]56CC[C@H](c7cc(F)c(F)c(F)c7)N5C[C@H](F)C6)nc4c3F)c12 [Compound 103] | – | – | IC50 [1, 5]: < 100 nM; IC50 ([2]; Table 3, CellTiter Glo, read-out: IC50 (LS513^k)): < 100 nM
16 | C#Cc1c(F)ccc2cc(OC(=O)N3CCC[C@H]3COC)cc(-c3ncc4c(N5CCCCCN5)nc(OC[C@@]56CCCN5C[C@H](F)C6)nc4c3F)c12 [Compound 74] | – | < 100 nM | IC50 [2, 4]: < 100 nM
17 | C#Cc1c(F)ccc2cc(O)cc(-c3ncc4c(N5CCCCCN5)nc(OCC5(CN6CCN(c7cc(F)c(F)c(F)c7)CC6)CC5)nc4c3F)c12 [Compound 130] | – | – | IC50 [1, 5]: 100 to 1000 nM
18 | C#Cc1c(F)ccc2cc(OC(=O)NCCCCCCCCCCCCCCCC)cc(-c3ncc4c(N5CCCCCN5)nc(OC[C@@]56CCCN5C[C@H](F)C6)nc4c3F)c12 [Compound 101] | – | < 100 nM | IC50 [2, 4]: < 100 nM
19 | Oc1cc(-c2ncc3c(N4CCCCCN4)nc(OC[C@@]45CCCN4C[C@H](F)C5)nc3c2F)c2c(F)c(F)ccc2c1 [Compound 66] | – | – | IC50 [1, 7]: < 100 nM
20 | C#Cc1c(F)ccc2cc(OC(=O)N(C)C)cc(-c3ncc4c(N5CCCCCN5)nc(OC[C@@]56CCCN5C[C@H](F)C6)nc4c3F)c12 [Compound 89] | – | 100 to 1000 nM | –
21 | C#Cc1c(F)ccc2cc(O)cc(-c3ncc4c(N5CCCCCN5)nc(OC[C@@]56CC[C@H](c7cc(F)c(C(F)(F)F)c(F)c7)N5C[C@H](F)C6)nc4c3F)c12 [Compound 117] | – | 100 to 1000 nM | IC50 [2, 4]: 100 to 1000 nM
22 | C#Cc1c(F)ccc2cc(O)cc(-c3ncc4c(N5CC=CCN5)nc(OC[C@@]56CCCN5C[C@H](F)C6)nc4c3F)c12 [Compound 76] | – | – | IC50 [1, 7]: 100 to 1000 nM
23 | C#Cc1c(F)ccc2cc(OCOC(=O)N(C)C)cc(-c3ncc4c(N5CCCCCN5)nc(OC[C@@]56CCCN5C[C@H](F)C6)nc4c3F)c12 [Compound 145] | – | 100 to 1000 nM | IC50 [2, 4]: 100 to 1000 nM
24 | C#Cc1c(F)ccc2cc(OC(=O)N3CCC(N4CCCCC4)CC3)cc(-c3ncc4c(N5CCCCCN5)nc(OC[C@@]56CCCN5C[C@H](F)C6)nc4c3F)c12 [Compound 73] | – | 100 to 1000 nM | IC50 [2, 4]: 100 to 1000 nM
25 | C#Cc1c(F)ccc2cc(OC(=O)NCCCC)cc(-c3ncc4c(N5CCCCCN5)nc(OC[C@@]56CCCN5C[C@H](F)C6)nc4c3F)c12 [Compound 94] | – | < 100 nM | IC50 [2, 4]: < 100 nM
26 | C#Cc1c(F)ccc2cc(O)cc(-c3ncc4c(N5CCCCCN5C(=O)OCC)nc(OC[C@@]56CCCN5C[C@H](F)C6)nc4c3F)c12 [Compound 20] | 100 to 1000 nM | – | –
27 | C#Cc1c(F)ccc2cc(O)cc(-c3ncc4c(N5CCCCCN5)nc(OCC5CN(c6nccn6C)C5)nc4c3F)c12 [Compound 138] | – | 100 to 1000 nM | –
28 | C#Cc1c(F)ccc2cc(OC(=O)N(CCOC)CCOC)cc(-c3ncc4c(N5CCCCCN5)nc(OC[C@@]56CCCN5C[C@H](F)C6)nc4c3F)c12 [Compound 98] | – | < 100 nM | IC50 [2, 4]: < 100 nM
29 | C#Cc1c(F)ccc2cc(O)cc(-c3ncc4c(N5CCCCCN5)nc(OCC56CCCN5CC(=C(F)F)C6)nc4c3F)c12 (centres unmarked) [Compound 22] | – | – | IC50 [2, 8]: < 100 nM
30 | C#Cc1c(F)ccc2cc(O)cc(-c3ncc4c(N5CCCCCN5)nc(OCC5(C)C(C)CCN5CC=C)nc4c3F)c12 (centres unmarked) [Compound 148] | – | < 100 nM | –
31 | C#Cc1c(F)ccc2cc(O)cc(-c3ncc4c(N5CCCCCN5)nc(OCC56CCCN5C/C(=C/F)C6)nc4c3F)c12 (centres unmarked) [Compound 21] | – | – | IC50 [2, 8]: < 100 nM
32 | C#Cc1c(F)ccc2cc(O)cc(-c3ncc4c(N5CCCCCN5)nc(OCC5(CN(C)C)CC5)nc4c3F)c12 [Compound 13] | – | – | IC50 ([2]; Table 1, CellTiter Glo, read-out: IC50 (LS513^f)): < 100 nM
33 | C#Cc1c(F)ccc2cc(OC(=O)N3CCCC3)cc(-c3ncc4c(N5CCCCCN5)nc(OC[C@@]56CCCN5C[C@H](F)C6)nc4c3F)c12 [Compound 111] | – | < 100 nM | –
34 | C#Cc1c(F)ccc2cc(O)cc(-c3ncc4c(N5CCCCCN5C(=O)OC(C)(C)C)nc(OC[C@@]56CCCN5C[C@H](F)C6)nc4c3F)c12 [Compound 12] | – | – | IC50 [2, 8]: < 100 nM
35 | C#Cc1c(F)ccc2cc(O)cc(-c3ncc4c(N5CCCCCN5)nc(OCC5(CN6CCC(OCC(=O)N[C@H](C(=O)N7C[C@H](O)C[C@H]7C(=O)N[C@@H](C)c7ccc(-c8scnc8C)cc7)C(C)(C)C)CC6)CC5)nc4c3F)c12 [Compound 108] | – | – | IC50 [1, 5]: < 100 nM
36 | C#Cc1c(F)ccc2cc(O)cc(-c3c(C(F)(F)F)cc4c(N5CCCCCN5)nc(OC[C@@]56CCCN5C[C@H](F)C6)nc4c3F)c12 [Compound 54] | – | – | IC50 [1, 7]: 100 to 1000 nM
37 | C#Cc1c(F)ccc2cc(O)cc(-c3ncc4c(N5CCCCCN5C(=O)OC(C)(C)C)nc(OCC5(CN(C)C)CC5)nc4c3F)c12 [Compound 14] | – | – | IC50 [2, 8]: 100 to 1000 nM
38 | C#Cc1c(F)ccc2cc(O)cc(-c3ncc4c(N5CCCCN5)nc(OC[C@@]56CCCN5C[C@H](F)C6)nc4c3F)c12 [Compound 16] | – | – | IC50 ([2]; Homo sapiens, LS-513, 144 h, Table 1, numeric value, read-out: IC50 (LS513^f)): 11.8 nM; IC50 [2, 8]: < 100 nM
